# Data published in PubChem BioAssay AID179 (DTP/NCI, 2004).
# Calls of active or inactive are those of the source.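 The calls were made as follows: active = compounds giving half or more protection of infected cells from virus-caused growth loss, again on retest; inactive = the rest.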
# Tested on: CEM cells HIV-1 protection, formazan growth assay
# Test: NCI AIDS Antiviral Assay
# Conditions: for IC50: measured here: growth of uninfected CEM cells
# How it was run: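 Human CEM cells, uninfected and HIV-1-infected, received five drug concentrations, and growth was read by soluble formazan assay. Compounds giving at least 50% protection were retested; reproducible 100% protection defined confirmed active.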
Structure (SMILES),outcome,EC50 [µM],IC50 [µM]
O=C(NCCCl)c1cc(C(F)(F)F)cc(C(F)(F)F)c1,inactive,–,–
CC(=O)OCC1OC(n2c(-c3cccs3)c3c(c(C#N)c2=S)-c2ccccc2CC3)C(OC(C)=O)C(OC(C)=O)C1OC(C)=O (centres undefined),inactive,–,–
Cc1ccc(CC[P+](=O)CCc2ccc(C)nc2)cn1,–,> 200,> 200
Cc1ccc2c(n1)C(N1CCC(C)CC1)=CC(=O)C2=O,inactive,–,–
CCOC(=O)/C=C/C1(CCOC(C)=O)CCCCC1,–,> 200,174
O=C(C=Nc1ccccc1S)c1ccco1,inactive,–,–
CCC[CH2][Ge]([CH2]CCC)([CH2]CCC)[O]C(=O)C(OC(C)=O)c1ccccc1 (centres undefined),–,> 151,4.27
Cn1c(O)c(N=Nc2ccccc2[N+](=O)[O-])c2ccccc21,–,> 200,> 200
O=C(CC(=O)c1ccccc1)C(=O)Nc1ccc(Cl)cc1,–,> 12,> 12
COc1ccc(OCC(=O)O)c(C(=O)CCC(=O)O)c1,inactive,–,–
Cc1ccc(-c2n[nH]c(=O)n2/N=C\c2ccc([N+](=O)[O-])cc2)cc1,–,> 200,58.9
NCC#CCNCCCN1CC1,–,> 200,> 200
Cc1nc2ccccc2nc1CC(=N)c1ccccc1,–,> 200,61.7
COc1ccc2c(c1)OCC(O)(c1ccccc1)C2=O (centres undefined),–,> 200,155
O=C1NC(=O)C(=Nc2cccc3c(=O)[nH][nH]c(=O)c23)C(c2nc3ccccc3s2)C1=O (centres undefined),inactive,–,–
Cc1ccc(C(=O)Nc2ccc(S(=O)(=O)O)c3cc(S(=O)(=O)O)cc(S(=O)(=O)O)c23)cc1NC(=S)Nc1cc(C(=O)Nc2ccc(S(=O)(=O)O)c3cc(S(=O)(=O)O)cc(S(=O)(=O)O)c23)ccc1C,–,132,204

Structure (SMILES),outcome,EC50 [µM],IC50 [µM]
CC(C)(CO)CNc1cc(=O)[nH]c(N)n1,–,> 200,> 200
COc1ccc2c(c1)OC[C@@H]1c3cc(NS(=O)(=O)c4ccccc4)cc(OC)c3O[C@H]21,–,> 200,18.2
NC(=O)Nc1ccc(C(=O)NCCCNC(=O)c2ccc(NC(N)=O)cc2)cc1,–,> 200,> 200
O=C(O)CNCCCCCCNCC(=O)O,–,> 631,617
O=C1C=C2CCC[C@H]3OC(=O)C[C@@]23CC1,inactive,–,–
CSC1=Nc2cccnc2Nc2cscc21,–,> 200,1.26
O=C1c2ccccc2C2CC1c1ccccc12 (centres undefined),–,> 214,> 200
O=C1c2ccccc2OC(Cl)(c2ccccc2)C1Cl (centres undefined),–,> 200,31.6
CC12CCC(c3sc(N)c(C#N)c31)C2(C)C (centres undefined),–,> 191,35.5
c1ccc(-c2nc3ccccc3nc2-c2ccccn2)nc1,–,> 200,> 200
O=P(O)(O)CN1CCNCCN(CP(=O)(O)O)CCN(CP(=O)(O)O)CCNCC1,–,> 100,64.6
COc1cc([C@H]2Oc3c(OC)cc(/C=C/C(N)=O)cc3[C@@H]2C(N)=O)ccc1O,–,> 200,> 200
O=C(OC[C@]12OC1C=C[C@H](OC(=O)c1ccccc1)C2O)c1ccccc1 (some centres undefined),–,> 24.5,23.4
COc1ccc(/C=C2\CCCCC2=O)cc1,inactive,–,–
CC(=O)Nc1ccc(C(=O)NN2C(=O)C(Cl)C2c2cc(Br)ccc2O)cc1 (centres undefined),–,> 200,4.17
